Laboratory results published in US6106805A, “Diagnostic composition containing an LH-RH antagonist for hysteroscopy” (Asta Medica Aktiengesellschaft, priority 1996, dated 2000).
Non-standard residues stand in square brackets, D forms with d. Residues, ends and D or L forms follow the SMILES beside them. dPhe(4-Cl) = N[C@H](Cc1ccc(Cl)cc1)C(=O)O; d2Nal = N[C@H](Cc1ccc2ccccc2c1)C(=O)O; dCit = NC(=O)NCCC[C@@H](N)C(=O)O; d3Pal = N[C@H](Cc1cccnc1)C(=O)O

How the values were obtained:
[1] = tested on: endometrium; assay: Clinical experiment: endometrium measured by ultrasonics during cetrorelix pamoate treatment; assay type: in vivo, human
Method: (§1) Injection of 60 mg of cetrorelix on days 2 and 28 of the menstrual cycle.

[2] = tested on: E2; assay: Clinical experiment: E2 level during cetrorelix pamoate treatment; assay type: in vivo, human
Method: as §1

[3] = tested on: myoma; assay: Hysteroscopic and laparoscopic myoma resection after cetrorelix therapy; assay type: in vivo, human; conditions: 2 months after beginning the cetrorelix therapy
Method: Treatment of a patient with uterine fibrosis, which was operated on. Injection of 60 mg of cetrorelix on days 2 and 28 of the menstrual cycle.

[4] = Tolerability of premedication, comparison with existing therapies; assay type: in vivo, human; conditions: short treatment period of from 7 to 10 days
[5] = comparison with existing therapies; cited from earlier work
[6] = Day 14 after 1st injection 60 mg
[7] = Day 21 after 1st injection 60 mg
[8] = Day 28, day of 2nd injection 60 mg

Structure (SMILES)	endometrial growth during the treatment ([1]; 60 mg on days 2 and 28 of the menstrual cycle, measured by ultrasonics)	Endometrium ([1]; Day 7 after 1st injection 60 mg, patient with uterine fibrosis) [mm]	Endometrium [1, 6]	Endometrium [1, 7] [mm]	Endometrium [1, 8]	Endometrium ([1]; Day 42, after 2 injections of 60 mg (Day 0, Day 28))	Endometrium ([1]; Day 55, end of the study, after 2 injections of 60 mg)	onset of decrease of the thickness of the endometrial layer ([1]; after injecting)	E2 ([2]; Day 0, day of 1st injection 60 mg (baseline)) [pg/mL]	E2 ([2]; Day 7 after 1st injection 60 mg) [pg/mL]	E2 [2, 6] [pg/mL]	E2 [2, 7] [pg/mL]	E2 [2, 8] [pg/mL]	E2 ([2]; Day 42, after 2 injections of 60 mg) [pg/mL]	E2 ([2]; Day 55, end of the study) [pg/mL]	E2 ([2]; Day of operation (07.05.96)) [pg/mL]	blood loss at hysteroscopic and laparoscopic myoma resection [3]	side effects [4]	side effects / drawbacks of existing therapies [5]
CC(=O)N[C@H](Cc1ccc2ccccc2c1)C(=O)N[C@H](Cc1ccc(Cl)cc1)C(=O)N[C@H](Cc1cccnc1)C(=O)N[C@@H](CO)C(=O)N[C@@H](Cc1ccc(O)cc1)C(=O)N[C@H](CCCNC(N)=O)C(=O)N[C@@H](CC(C)C)C(=O)N[C@@H](CCCNC(=N)N)C(=O)N1CCC[C@H]1C(=O)N[C@H](C)C(N)=O [cetrorelix pamoate] (Ac-[d2Nal][dPhe(4-Cl)][d3Pal]SY[dCit]LRP[dA]-NH2)	did not exhibit any growth	2	flat/even	3.1	flat/even	flat/even	flat/even	begins to decrease immediately	25	< 5	17	40	88	25	73	114	without any significant blood loss	no side effects	–
C#C[C@]1(O)CC[C@H]2[C@@H]3CCC4=Cc5oncc5C[C@]4(C)[C@H]3CC[C@@]21C [Danazol]	–	–	–	–	–	–	–	–	–	–	–	–	–	–	–	–	–	–	acne, hirsutism and increase in weight
